# Measured values published in ChEMBL document CHEMBL5050844 (2019).
# Legend:
# [1] = Induction of activation of human CD56+ CD3- NK cells co-cultured with human K562 cells in 1:1 ratio and assessed as increase in TNF-alpha secretion at 2.5 uM measured by ELISA assay; assay type: functional, Natural killer cell
# [2] = Induction of anti-CD3/CD28 antibodies-stimulated human T cell activation at 1.11 uM assessed fold increase in GM-CSF secretion measured by ELISA assay; assay type: functional, T cell line
# [3] = Induction of anti-CD3/CD28 antibodies-stimulated human T cell activation at 0.3 uM assessed fold increase in IL-2 secretion measured by ELISA assay; assay type: functional, T cell line
# [4] = Induction of anti-CD3/CD28 antibodies-stimulated human CD8+ T cell activation at 10 uM assessed fold increase in cell proliferation measured by flow cytometry analysis; assay type: functional, T cell line
# [5] = Induction of anti-CD3/CD28 antibodies-stimulated human anergic T cell activation at 10 uM assessed fold increase in IFN-gamma secretion measured by ELISA assay; assay type: functional, T cell line
# [6] = Induction of anti-CD3 antibodies-stimulated human T cell activation at 1 uM assessed fold increase in IL-2 secretion measured by ELISA assay; assay type: functional, T cell line; note: reference of the scale not given here
# [7] = Induction of activation of human CD56+ CD3- NK cells co-cultured with human K562 cells in 1:1 ratio and assessed as increase in IFN-gamma secretion at 2.5 uM measured by ELISA assay; assay type: functional, Natural killer cell
# [8] = Induction of anti-CD3 antibodies-stimulated human T cell activation at 1.11 uM assessed fold increase in TNF-alpha secretion measured by ELISA assay; assay type: functional, T cell line; note: reference of the scale not given here
# [9] = Induction of anti-CD3/CD28 antibodies-stimulated human T cell activation at 10 uM assessed fold increase in TNF-alpha secretion measured by ELISA assay; assay type: functional, T cell line
# [10] = Induction of anti-CD3 antibodies-stimulated human T cell activation at 8 uM assessed fold increase in CD25 expression measured by ELISA assay; assay type: functional, T cell line; note: reference of the scale not given here
# [11] = Induction of anti-CD3 antibodies-stimulated human T cell activation at 10 uM assessed fold increase in IFN-gamma secretion measured by ELISA assay; assay type: functional, T cell line; note: reference of the scale not given here
# [12] = Induction of anti-CD3/CD28 antibodies-stimulated human CD4+ T cell activation at 1.11 uM assessed fold increase in CD69 expression measured by flow cytometry analysis; assay type: functional, T cell line
# [13] = Induction of anti-CD3 antibodies-stimulated human CD8+ T cell activation at 10 uM assessed fold increase in cell proliferation measured by flow cytometry analysis; assay type: functional, T cell line; note: reference of the scale not given here
# [14] = Induction of activation of human CD56+ CD3- NK cells co-cultured with human K562 cells in 1:1 ratio and assessed as increase in IFN-gamma secretion at 0.625 uM measured by ELISA assay; assay type: functional, Natural killer cell
# B cell = test: Induction of anti-IgM-stimulated human CD20+ B cell activation at 10 to 1000 uM assessed as increase in CD69 expression measured as mean fluorescence intensity AUC by flow cytometry analysis; assay type: functional, cell-based; conditions: dose 10-1000 µM
# [15] = Induction of allogenic human T cell activation at 3 uM assessed fold increase in cell proliferation; assay type: functional, T cell line
# [16] = Induction of anti-CD3 antibodies-stimulated human CD4+ T cell activation at 10 uM assessed fold increase in CD69 expression measured by flow cytometry analysis; assay type: functional, T cell line; note: reference of the scale not given here
# [17] = Induction of anti-CD3/CD28 antibodies-stimulated human T cell activation at 1 uM assessed fold increase in IL-2 secretion measured by ELISA assay; assay type: functional, T cell line
# [18] = Induction of activation of human CD56+ CD3- NK cells co-cultured with human K562 cells in 1:1 ratio and assessed as increase in TNF-alpha secretion at 0.625 uM measured by ELISA assay; assay type: functional, Natural killer cell
# [19] = Induction of anti-CD3/CD28 antibodies-stimulated human CD8+ T cell activation at 10 uM assessed fold increase in CD69 expression measured by flow cytometry analysis; assay type: functional, T cell line
# [20] = Induction of anti-CD3/CD28 antibodies-stimulated human T cell activation at 10 uM assessed fold increase in IFN-gamma secretion measured by ELISA assay; assay type: functional, T cell line
# [21] = Induction of anti-CD3/CD28 antibodies-stimulated human CD8+ T cell activation at 1.11 uM assessed fold increase in CD69 expression measured by flow cytometry analysis; assay type: functional, T cell line
# [22] = Induction of anti-CD3 antibodies-stimulated human T cell activation at 10 uM assessed fold increase in TNF-alpha secretion measured by ELISA assay; assay type: functional, T cell line; note: reference of the scale not given here
# [23] = Induction of anti-CD3/CD28 antibodies-stimulated human CD4+ T cell activation at 10 uM assessed fold increase in CD69 expression measured by flow cytometry analysis; assay type: functional, T cell line
# [24] = Induction of activation of human CD56+ CD3- NK cells co-cultured with human K562 cells in 1:1 ratio and assessed as increase in IFN-gamma secretion at 10 uM measured by ELISA assay; assay type: functional, Natural killer cell
# [25] = Induction of anti-CD3/CD28 antibodies-stimulated human T cell activation at 4 uM assessed fold increase in IL-2 secretion measured by ELISA assay; assay type: functional, T cell line
# [26] = Induction of anti-CD3/CD28 antibodies-stimulated human T cell activation at 4 uM assessed fold increase in CD25 expression measured by ELISA assay; assay type: functional, T cell line
# [27] = Induction of anti-CD3/CD28 antibodies-stimulated human T cell activation at 1.11 uM assessed fold increase in TNF-alpha secretion measured by ELISA assay; assay type: functional, T cell line
# [28] = Induction of anti-CD3 antibodies-stimulated human exhausted T cell activation assessed fold increase in IL-2 secretion measured by ELISA assay; assay type: functional, T cell line; note: reference of the scale not given here
# [29] = Induction of anti-CD3 antibodies-stimulated human CD4+ T cell activation at 1.11 uM assessed fold increase in CD69 expression measured by flow cytometry analysis; assay type: functional, T cell line; note: reference of the scale not given here
# [30] = Induction of anti-CD3/CD28 antibodies-stimulated human anergic T cell activation at 0.37 uM assessed fold increase in IFN-gamma secretion measured by ELISA assay; assay type: functional, T cell line
# [31] = Induction of anti-CD3/CD28 antibodies-stimulated human T cell activation at 1.11 uM assessed fold increase in IFN-gamma secretion measured by ELISA assay; assay type: functional, T cell line
# [32] = Induction of anti-CD3 antibodies-stimulated human T cell activation at 8 uM assessed fold increase in IL-2 secretion measured by ELISA assay; assay type: functional, T cell line; note: reference of the scale not given here
# [33] = Induction of anti-CD3/CD28 antibodies-stimulated human T cell activation at 10 uM assessed fold increase in GM-CSF secretion measured by ELISA assay; assay type: functional, T cell line
# [34] = Induction of anti-CD3 antibodies-stimulated human exhausted CD4+ T cell activation assessed fold increase in CTLA4 expression measured by flow cytometry analysis; assay type: functional, T cell line; note: reference of the scale not given here
# [35] = Induction of allogenic human T cell activation at 10 uM assessed fold increase in cell proliferation; assay type: functional, T cell line
# [36] = Induction of anti-CD3/CD28 antibodies-stimulated human CD4+ T cell activation at 1.11 uM assessed fold increase in cell proliferation measured by flow cytometry analysis; assay type: functional, T cell line
# [37] = Induction of anti-CD3 antibodies-stimulated human exhausted T cell activation assessed fold increase in IFN-gamma secretion measured by ELISA assay; assay type: functional, T cell line; note: reference of the scale not given here
smiles,measurement,setting,value
Cc1n[nH]c(C)c1-c1cc2c(c(C(F)(F)F)c1)CN(c1cccc(C3(Cc4nncn4C)COC3)c1)C2=O,fold change (FC),[1],1.01
same,fold change (FC),[2],1.51
same,fold change (FC),[3],1.01
same,fold change (FC),[4],3.01
same,fold change (FC),[5],>4.01
same,fold change (FC),[6],0.101
same,fold change (FC),[7],1.01
same,fold change (FC),[8],<=1.5
same,fold change (FC),[9],2.01
same,fold change (FC),[10],>=1.001
same,fold change (FC),[11],<=2
same,fold change (FC),[12],1.201
same,fold change (FC),[13],>4
same,fold change (FC),[14],1.01
same,AUC,B cell,1.01
same,fold change (FC),[15],<=2
same,fold change (FC),[16],>1.601
same,fold change (FC),[17],2.51
same,fold change (FC),[18],<=1
same,fold change (FC),[19],1.201
same,fold change (FC),[20],>4
same,fold change (FC),[21],1.201
same,fold change (FC),[22],1.51
same,fold change (FC),[23],1.401
same,fold change (FC),[24],2.01
same,fold change (FC),[25],>=7.5
same,fold change (FC),[26],1.31
same,fold change (FC),[27],1.51
same,fold change (FC),[28],<=2.5
same,fold change (FC),[29],1.401
same,fold change (FC),[30],<=2.5
same,fold change (FC),[31],<=2
same,fold change (FC),[32],>=0.201
same,fold change (FC),[33],2.01
same,fold change (FC),[34],>1.61
same,fold change (FC),[35],<=2
same,fold change (FC),[36],>4
same,fold change (FC),[37],1.41
